# Results taken from patent publication US11208412B2 (DAEGU-GYEONGBUK MEDICAL INNOVATION FOUNDATION, priority 2017, dated 2021).
# Key:
# Assay in all cases: Kinase selectivity, DiscoverX scanMAX Kinase assay panel (% control)
# Format in all cases: binding
# [1] = biological target: T1, kinases of the scanMAX Kinase assay panel (Homo sapiens, UniProt O96017); conditions: CHEK2; 1 uM
# T1 construct: purchased DiscoverX Co. (contract measurement) scanMAX Kinase assay panel
# Summary of the method: (§1)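 Compounds were tested at 1 uM (in DMSO) against each panel kinase. % control was calculated as (compound − positive control)/(negative control − positive control)×100, where the positive control gives 0% and DMSO gives 100%. Activity toward a kinase was called at % control <35%.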
# [2] = biological target: T2, kinases of the scanMAX Kinase assay panel (Homo sapiens, UniProt P16234); conditions: PDGFRA; 1 uM
# T2 construct: purchased DiscoverX Co. (contract measurement) scanMAX Kinase assay panel
# T2 sequence (P16234 24-1089): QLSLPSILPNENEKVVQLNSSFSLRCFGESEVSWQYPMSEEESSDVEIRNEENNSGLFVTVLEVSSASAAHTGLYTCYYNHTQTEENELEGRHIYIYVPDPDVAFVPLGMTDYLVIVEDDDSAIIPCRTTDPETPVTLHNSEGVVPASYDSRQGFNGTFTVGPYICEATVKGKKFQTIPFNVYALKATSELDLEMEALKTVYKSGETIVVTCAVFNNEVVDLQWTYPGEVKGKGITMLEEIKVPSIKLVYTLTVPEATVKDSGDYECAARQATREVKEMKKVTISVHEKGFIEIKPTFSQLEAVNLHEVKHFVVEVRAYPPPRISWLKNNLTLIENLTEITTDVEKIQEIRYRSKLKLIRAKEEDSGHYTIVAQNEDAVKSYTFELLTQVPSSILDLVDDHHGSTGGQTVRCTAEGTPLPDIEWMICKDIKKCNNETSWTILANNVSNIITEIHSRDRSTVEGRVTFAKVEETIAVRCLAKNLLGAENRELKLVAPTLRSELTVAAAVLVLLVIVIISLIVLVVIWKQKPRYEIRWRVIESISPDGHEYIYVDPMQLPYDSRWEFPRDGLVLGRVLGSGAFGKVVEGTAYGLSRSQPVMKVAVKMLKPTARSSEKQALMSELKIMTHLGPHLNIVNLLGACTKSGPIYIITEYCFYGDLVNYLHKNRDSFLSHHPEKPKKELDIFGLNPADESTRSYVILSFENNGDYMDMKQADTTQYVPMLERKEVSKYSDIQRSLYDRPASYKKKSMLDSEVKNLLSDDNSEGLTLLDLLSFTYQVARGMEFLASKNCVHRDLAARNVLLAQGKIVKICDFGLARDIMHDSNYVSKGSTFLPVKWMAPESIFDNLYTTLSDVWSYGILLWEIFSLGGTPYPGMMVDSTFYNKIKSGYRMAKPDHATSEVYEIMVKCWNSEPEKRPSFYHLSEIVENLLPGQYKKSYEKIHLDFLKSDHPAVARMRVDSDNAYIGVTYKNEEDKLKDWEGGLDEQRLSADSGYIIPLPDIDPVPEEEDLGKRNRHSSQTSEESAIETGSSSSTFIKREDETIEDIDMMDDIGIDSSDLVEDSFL
# Summary of the method: as §1
# [3] = biological target: T3, kinases of the scanMAX Kinase assay panel (Homo sapiens, UniProt P29317); conditions: EPHA2; 1 uM
# T3 construct: purchased DiscoverX Co. (contract measurement) scanMAX Kinase assay panel
# T3 sequence (P29317 24-976): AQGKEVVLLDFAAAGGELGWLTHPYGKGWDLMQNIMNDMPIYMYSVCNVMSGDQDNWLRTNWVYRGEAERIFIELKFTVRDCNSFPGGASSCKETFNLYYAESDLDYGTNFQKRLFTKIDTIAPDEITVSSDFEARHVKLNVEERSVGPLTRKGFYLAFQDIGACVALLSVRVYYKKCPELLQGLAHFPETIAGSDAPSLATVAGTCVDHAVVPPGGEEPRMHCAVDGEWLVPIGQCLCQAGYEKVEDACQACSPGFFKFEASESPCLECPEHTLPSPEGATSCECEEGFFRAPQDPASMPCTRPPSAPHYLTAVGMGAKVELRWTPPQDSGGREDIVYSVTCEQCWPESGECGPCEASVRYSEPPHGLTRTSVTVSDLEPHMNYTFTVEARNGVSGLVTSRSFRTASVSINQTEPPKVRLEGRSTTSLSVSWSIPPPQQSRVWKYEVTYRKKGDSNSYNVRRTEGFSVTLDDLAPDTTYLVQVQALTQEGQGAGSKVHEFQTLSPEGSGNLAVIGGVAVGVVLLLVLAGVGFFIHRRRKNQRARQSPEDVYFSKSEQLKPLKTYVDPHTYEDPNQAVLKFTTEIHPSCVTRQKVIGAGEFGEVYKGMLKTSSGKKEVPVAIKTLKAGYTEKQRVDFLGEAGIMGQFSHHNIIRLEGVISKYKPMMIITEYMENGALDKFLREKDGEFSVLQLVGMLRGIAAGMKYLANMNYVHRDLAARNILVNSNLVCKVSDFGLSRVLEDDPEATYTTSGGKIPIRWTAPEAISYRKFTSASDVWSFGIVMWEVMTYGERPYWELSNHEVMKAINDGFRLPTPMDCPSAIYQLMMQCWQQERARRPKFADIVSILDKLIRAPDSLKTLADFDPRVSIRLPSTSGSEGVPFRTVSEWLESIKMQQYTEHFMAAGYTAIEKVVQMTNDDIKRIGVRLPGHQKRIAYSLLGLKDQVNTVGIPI
# Summary of the method: as §1
# [4] = biological target: T4, kinases of the scanMAX Kinase assay panel (Homo sapiens, UniProt P57078); conditions: kinase RIPK4; 1 uM in DMSO
# T4 construct: purchased DiscoverX Co. (contract measurement) scanMAX Kinase assay panel
# T4 sequence (P57078 1-832): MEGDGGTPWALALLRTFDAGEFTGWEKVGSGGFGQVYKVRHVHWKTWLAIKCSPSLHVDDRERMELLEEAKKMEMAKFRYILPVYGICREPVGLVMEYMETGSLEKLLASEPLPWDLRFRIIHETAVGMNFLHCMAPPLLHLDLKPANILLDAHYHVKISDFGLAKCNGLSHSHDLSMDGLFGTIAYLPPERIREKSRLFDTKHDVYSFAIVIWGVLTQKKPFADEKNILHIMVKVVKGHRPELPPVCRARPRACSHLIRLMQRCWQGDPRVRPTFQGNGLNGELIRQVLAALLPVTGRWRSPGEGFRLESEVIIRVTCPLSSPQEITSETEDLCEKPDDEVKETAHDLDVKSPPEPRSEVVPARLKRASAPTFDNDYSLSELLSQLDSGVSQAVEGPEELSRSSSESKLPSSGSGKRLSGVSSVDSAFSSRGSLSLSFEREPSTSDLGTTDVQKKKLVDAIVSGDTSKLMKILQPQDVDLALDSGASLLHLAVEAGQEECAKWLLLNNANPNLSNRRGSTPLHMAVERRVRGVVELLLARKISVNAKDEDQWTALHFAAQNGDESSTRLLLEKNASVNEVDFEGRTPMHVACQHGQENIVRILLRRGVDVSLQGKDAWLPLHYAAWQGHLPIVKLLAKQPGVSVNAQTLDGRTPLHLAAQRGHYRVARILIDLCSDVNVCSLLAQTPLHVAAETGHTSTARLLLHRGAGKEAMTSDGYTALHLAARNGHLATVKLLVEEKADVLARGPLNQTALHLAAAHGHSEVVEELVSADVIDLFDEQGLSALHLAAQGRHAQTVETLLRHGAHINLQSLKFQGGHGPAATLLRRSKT
# Summary of the method: as §1
# [5] = biological target: T5, kinases of the scanMAX Kinase assay panel (Homo sapiens, UniProt P78368); conditions: CSNK1G2; 1 uM
# T5 construct: purchased DiscoverX Co. (contract measurement) scanMAX Kinase assay panel
# T5 sequence (P78368 whole entry): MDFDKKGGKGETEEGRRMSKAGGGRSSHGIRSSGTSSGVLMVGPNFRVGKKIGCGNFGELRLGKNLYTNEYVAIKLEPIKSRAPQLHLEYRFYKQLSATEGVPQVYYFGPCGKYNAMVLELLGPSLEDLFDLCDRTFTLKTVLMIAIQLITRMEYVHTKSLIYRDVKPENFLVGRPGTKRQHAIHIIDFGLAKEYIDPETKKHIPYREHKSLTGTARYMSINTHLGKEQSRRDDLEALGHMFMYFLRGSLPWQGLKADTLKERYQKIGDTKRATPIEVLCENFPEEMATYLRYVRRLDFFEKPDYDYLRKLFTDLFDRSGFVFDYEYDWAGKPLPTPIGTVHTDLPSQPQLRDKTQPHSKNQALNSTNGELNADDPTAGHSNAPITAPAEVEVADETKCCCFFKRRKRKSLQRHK
# Summary of the method: as §1
# [6] = biological target: T6, kinases of the scanMAX Kinase assay panel (Homo sapiens, UniProt Q02763); conditions: kinase TIE2; 1 uM in DMSO
# T6 construct: purchased DiscoverX Co. (contract measurement) scanMAX Kinase assay panel
# T6 sequence (Q02763 23-1124): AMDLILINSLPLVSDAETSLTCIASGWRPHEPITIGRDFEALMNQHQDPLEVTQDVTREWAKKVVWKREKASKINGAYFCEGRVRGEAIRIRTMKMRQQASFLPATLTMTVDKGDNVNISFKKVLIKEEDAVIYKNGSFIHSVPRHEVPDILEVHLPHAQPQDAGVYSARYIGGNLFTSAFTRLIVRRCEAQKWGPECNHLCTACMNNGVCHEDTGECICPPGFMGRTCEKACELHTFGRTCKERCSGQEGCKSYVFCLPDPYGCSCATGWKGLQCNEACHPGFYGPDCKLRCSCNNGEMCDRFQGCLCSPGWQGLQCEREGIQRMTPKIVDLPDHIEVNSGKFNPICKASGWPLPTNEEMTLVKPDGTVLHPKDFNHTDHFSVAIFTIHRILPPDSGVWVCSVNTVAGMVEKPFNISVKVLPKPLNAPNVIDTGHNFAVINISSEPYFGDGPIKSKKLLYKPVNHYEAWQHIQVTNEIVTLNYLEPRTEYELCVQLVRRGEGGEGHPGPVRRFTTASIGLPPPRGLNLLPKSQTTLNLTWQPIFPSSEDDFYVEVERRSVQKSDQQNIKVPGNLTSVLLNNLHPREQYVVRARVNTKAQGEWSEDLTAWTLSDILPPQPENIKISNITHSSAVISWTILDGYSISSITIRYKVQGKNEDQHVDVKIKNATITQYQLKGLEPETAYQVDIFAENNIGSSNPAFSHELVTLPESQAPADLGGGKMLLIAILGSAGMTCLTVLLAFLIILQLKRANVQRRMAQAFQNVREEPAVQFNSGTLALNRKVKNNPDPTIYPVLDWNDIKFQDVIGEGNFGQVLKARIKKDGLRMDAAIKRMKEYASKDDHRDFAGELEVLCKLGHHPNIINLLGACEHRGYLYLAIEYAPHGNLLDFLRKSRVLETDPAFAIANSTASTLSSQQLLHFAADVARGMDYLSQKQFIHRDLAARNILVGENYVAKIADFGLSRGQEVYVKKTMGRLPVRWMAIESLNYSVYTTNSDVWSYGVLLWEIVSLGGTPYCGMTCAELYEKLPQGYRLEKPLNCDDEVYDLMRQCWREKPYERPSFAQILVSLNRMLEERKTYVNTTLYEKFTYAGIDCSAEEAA
# Summary of the method: as §1
# [7] = biological target: T7, kinases of the scanMAX Kinase assay panel (Homo sapiens, UniProt Q32MK0); conditions: MLCK; 1 uM
# T7 construct: purchased DiscoverX Co. (contract measurement) scanMAX Kinase assay panel
# T7 sequence (Q32MK0 1-819): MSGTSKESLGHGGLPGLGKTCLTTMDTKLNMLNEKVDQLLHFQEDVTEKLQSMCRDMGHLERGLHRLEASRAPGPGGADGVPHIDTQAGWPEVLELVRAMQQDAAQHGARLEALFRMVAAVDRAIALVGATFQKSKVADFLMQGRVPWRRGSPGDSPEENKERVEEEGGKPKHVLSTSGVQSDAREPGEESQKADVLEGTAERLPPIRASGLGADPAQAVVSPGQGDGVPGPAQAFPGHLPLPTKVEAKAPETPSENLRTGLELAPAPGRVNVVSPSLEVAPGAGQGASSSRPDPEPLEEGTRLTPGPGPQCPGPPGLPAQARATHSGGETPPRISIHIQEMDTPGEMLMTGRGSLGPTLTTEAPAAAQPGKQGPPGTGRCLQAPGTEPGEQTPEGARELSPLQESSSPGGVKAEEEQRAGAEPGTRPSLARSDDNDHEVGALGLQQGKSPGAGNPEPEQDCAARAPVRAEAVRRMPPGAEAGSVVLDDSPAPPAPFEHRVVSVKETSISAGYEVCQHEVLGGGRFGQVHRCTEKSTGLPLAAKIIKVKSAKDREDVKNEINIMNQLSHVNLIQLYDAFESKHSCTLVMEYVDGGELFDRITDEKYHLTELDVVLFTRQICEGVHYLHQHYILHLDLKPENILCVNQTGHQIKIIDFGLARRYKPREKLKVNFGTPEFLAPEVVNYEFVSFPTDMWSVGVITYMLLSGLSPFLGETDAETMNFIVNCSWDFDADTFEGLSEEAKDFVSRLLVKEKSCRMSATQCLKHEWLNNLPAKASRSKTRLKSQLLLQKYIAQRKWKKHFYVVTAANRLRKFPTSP
# Summary of the method: as §1
# [8] = biological target: T8, kinases of the scanMAX Kinase assay panel (Homo sapiens, UniProt Q96BR1); conditions: kinase SGK3; 1 uM in DMSO
# T8 construct: purchased DiscoverX Co. (contract measurement) scanMAX Kinase assay panel
# T8 sequence (Q96BR1 1-496): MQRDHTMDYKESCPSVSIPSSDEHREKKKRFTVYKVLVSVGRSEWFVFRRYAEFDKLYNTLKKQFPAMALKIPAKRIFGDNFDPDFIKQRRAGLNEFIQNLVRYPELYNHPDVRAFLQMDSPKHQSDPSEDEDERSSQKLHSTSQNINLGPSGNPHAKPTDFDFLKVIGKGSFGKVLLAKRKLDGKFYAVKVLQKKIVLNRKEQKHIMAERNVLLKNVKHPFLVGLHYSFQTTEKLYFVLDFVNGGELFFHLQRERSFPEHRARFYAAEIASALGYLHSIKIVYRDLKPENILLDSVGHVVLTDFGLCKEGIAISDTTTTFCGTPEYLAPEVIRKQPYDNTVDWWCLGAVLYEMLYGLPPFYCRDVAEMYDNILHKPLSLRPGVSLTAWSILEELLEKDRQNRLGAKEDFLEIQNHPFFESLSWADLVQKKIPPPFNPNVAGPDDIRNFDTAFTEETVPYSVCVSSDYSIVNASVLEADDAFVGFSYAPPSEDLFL
# Summary of the method: as §1
# T1 sequence (O96017 whole entry): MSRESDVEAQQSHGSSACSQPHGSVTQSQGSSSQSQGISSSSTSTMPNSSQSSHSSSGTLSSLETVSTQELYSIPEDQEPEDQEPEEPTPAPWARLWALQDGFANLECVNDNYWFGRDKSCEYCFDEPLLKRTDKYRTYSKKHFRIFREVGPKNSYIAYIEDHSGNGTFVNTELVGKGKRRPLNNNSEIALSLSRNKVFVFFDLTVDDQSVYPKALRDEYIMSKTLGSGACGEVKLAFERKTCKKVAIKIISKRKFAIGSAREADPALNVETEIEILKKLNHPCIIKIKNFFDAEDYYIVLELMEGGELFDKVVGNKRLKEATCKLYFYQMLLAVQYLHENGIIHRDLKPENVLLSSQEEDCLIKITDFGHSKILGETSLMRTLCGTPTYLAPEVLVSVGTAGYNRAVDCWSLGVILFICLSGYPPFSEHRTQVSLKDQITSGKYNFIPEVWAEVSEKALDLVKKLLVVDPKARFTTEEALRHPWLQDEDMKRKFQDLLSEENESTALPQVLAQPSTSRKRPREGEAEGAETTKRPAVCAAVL
Structure (SMILES),remaining binding at 1 µM [1] [%],remaining binding at 1 µM [2] [%],remaining binding at 1 µM [3] [%],remaining binding at 1 µM [4] [%],remaining binding at 1 µM [5] [%],remaining binding at 1 µM [6] [%],remaining binding at 1 µM [7] [%],remaining binding at 1 µM [8] [%]
"CCNc1nc(Nc2ccc(C(=O)N3CCC(N4CCOCC4)CC3)cc2OC)nc2[nH]cc(C(F)(F)F)c12 [Example 104, (4-((4-(ethylamino)-5-(trifluoromethyl)-7H-pyrrolo[2,3-d]pyrimidine-2-yl)amino)-3-methoxyphenyl)(4-morpholinopiperidine-1-yl)methanone]",12,88,100,0.6,100,100,92,87
"CNc1nc(Nc2ccc(C(=O)N3CCOCC3)cc2OC)nc2[nH]cc(C#N)c12 [Example 1, 2-((2-methoxy-4-(morpholine-4-carbonyl)phenyl)amino)-4-(methylamino)-7H-pyrrolo[2,3-d]pyrimidine-5-carbonitrile]",7.7,15,97,72,58,92,96,63
"CC1(Nc2nc(Nc3cnn([C@H]4CCN(C5COC5)C[C@@H]4F)c3Cl)nc3[nH]cc(C#N)c23)CC1 [Example 52, 2-((5-chloro-1-((3S,4S)-3-fluoro-1-(oxetane-3-yl)piperidine-4-yl)-1H-pyrazole-4-yl)amino)((1-methylcyclopropyl)amino)-7H-pyrrolo[2,3-d]pyrimidine-5-carbonitrile]",0,9.7,79,1.6,0.1,46,9,70
